Assay results taken from patent publication US4520022A, “Substituted vinyl cephalosporins” (priority 1983, dated 1985).
Converted amounts (≈) assume the structure as drawn. “And” between values parts separate entries of the source, which are not always exact repeats. Identical values can stand only once. Like-named read-outs stand apart in the source and are kept apart here.

Assays:
H. influenza A9729 = experiment: Protective dose PD50, mice infected with lethal inoculum, oral treatment, H. influenza A9729; assay type: in vivo; details: Mus musculus, 120 h
Text: The structure activity correlations drawn from the foregoing in vitro studies are born out by the results of in vivo studies in mice. Table 4 is a tabulation of the protective doses for mice infected with a lethal inoculum of a bacteria. Two different bacteria were employed in the studies, one a Gram+ organism and the other a Gram- organism. The protective dose (PD50) is that dose which when administered to a group of infected mice results in 50% survival after five days. Normally untreated infected mice die within three days following injection of the lethal inoculum.
Protective Dose PD50 for Mice Infected with Lethal Inoculum

[1] = tested on: Gp Ia: S. aureus Smith A9537, A9497, Terajima, A9534, A9601; details: Staphylococcus aureus
S. pneumoniae = experiment: In vitro activity against Streptococci (MIC), S. pneumoniae; assay type: cell-based; details: Streptococcus pneumoniae
[2] = tested on: Gp Ib: S. aureus 193, BX-1633-2 A9606, A15092, Russell, A9602; details: Staphylococcus aureus
B. fragilis = experiment: In vitro activity against anaerobes (MIC), B. fragilis; assay type: cell-based; details: Bacteroides fragilis
H. influenzae = experiment: In vitro activity against Haemophilis (MIC), H. influenzae; assay type: cell-based; details: Haemophilus influenzae, Compound 9 lot 2, read-out: MIC
S. pyogenes = experiment: In vitro activity against Streptococci (MIC), S. pyogenes; assay type: cell-based
S. aureus Smith = experiment: Protective dose, mice infected with lethal inoculum, oral treatment, S. aureus Smith; assay type: in vivo; details: for ED50: Staphylococcus aureus, po, 120 h
E. coli Juhl = experiment: Protective dose, mice infected with lethal inoculum, oral treatment, E. coli Juhl; assay type: in vivo; details: for ED50: Escherichia coli, po, 120 h
S. pyogenes A20201 = experiment: Protective dose PD50, mice infected with lethal inoculum, oral treatment, S. pyogenes A20201; assay type: in vivo; details: Streptococcus pyogenes, 120 h
Gp, rods; Gp, cocci = experiment: microbe, parasite or virus in culture; assay type: cell-based, C. difficile; C. perfringens; P. acnes; P. anaerobius; details: read-out: MIC, Geometric Mean
P. mirabilis A9554 = experiment: Protective dose PD50, mice infected with lethal inoculum, oral treatment, P. mirabilis A9554; assay type: in vivo
C. perfringens A9645 = experiment: microbe, parasite or virus in culture; assay type: cell-based; details: Clostridium perfringens
S. aureus BX-1633 = experiment: Protective dose PD50, mice infected with lethal inoculum, oral treatment, S. aureus BX-1633; assay type: in vivo; details: Staphylococcus aureus, BX1633, 120 h
C. difficile A21675 = experiment: In vitro activity against anaerobes (MIC), C. difficile; assay type: cell-based; details: Clostridioides difficile; Gp rods; C. difficile A21675; clindamycin resistant; read-out: MIC
bacteria = experiment: Antibacterial activity, general statements; details: in words
in vivo = details: mouse; for half-life: T1/2
[3] = mouse, in vivo, po
[4] = Metabolism in the rat (urine after oral administration); assay type: in vivo, Wister rats; details: oral 100 mg/kg; urine 24 hours
Method: Refer to Procedure 43. Compound No. 37 is the 3,4-dihydroxyphenyl compound and Compound No. 42 is the 3-methoxy-4-hydroxyphenyl compound.
Six male Wister rats (400-600 g) were placed in steel metabolic cages after the oral administration of Compound 37 at the dose of 100 mg/kg and urine was collected over a period of 24 hours. The rats were fed their regular diet and given water during the experiment.
The urine (ca. 90 ml) was adjusted to pH 3 with N hydrochloric acid and filtered to remove a precipitate. The filtrate was chromatographed on a column packed with 300 ml of HP-20 by eluting with 2 L of water and 2 L of 30% methanol under monitoring the HPLC. The fractions containing the bioactive components of the 30% methanol eluate were collected, concentrated to 10 ml and lyophilized to give 390 mg of brown solid. A solution of the solid in 20 ml of water was chromatographed on a column packed with 200 ml of the packing of a prepPAK-C18 cartridge (Waters) by eluting with water, 5% methanol, and 10% methanol, successively. The first half of the 5% methanol eluate was concentrated to 5 ml and lyophilized to give 44 mg of Compound 37 (70% pure) containing impurities derived from urine. The second half of the 5% methanol eluate was concentrated to 5 ml and lyophilized to give 36 mg of product, which was a mixture of Compound 37, Compound 42, and impurities derived from urine. […]

[5] = read-out: Minimum Inhibitory Concentration Gp Ia, Mueller-Hinton agar, run 2, average of five organisms
[6] = read-out: Minimum Inhibitory Concentration Gp Ib, Mueller-Hinton agar, run 2, average of five organisms
[7] = oral, value in parentheses: cephalexin in the same run as the compound of that line, 7200 min

In the case of `CC1=C(C(=O)O)N2C(=O)[C@@H](NC(=O)[C@H](N)c3ccccc3)[C@H]2SC1` [Cephalexin], the ED50 (H. influenza A9729) is reported as 18 mg/kg, the MIC ([1]; read-out: Minimum Inhibitory Concentration Gp Ia, Mueller-Hinton agar, run 1, average of five organisms) is reported as 1.2 µg/mL (≈ 3.45 µM) and the MIC [1, 5] is reported as 0.7 µg/mL (≈ 2.01 µM). It also gave an MIC (S. pneumoniae) of 3.1 µg/mL (≈ 8.92 µM), an MIC (S. pneumoniae; S. pneumoniae A9585, Compound 9 lot 2) of 3.1 µg/mL (≈ 8.92 µM) and an MIC (S. pneumoniae; S. pneumoniae A15069, Compound 9 lot 2) of 3.1 µg/mL (≈ 8.92 µM). The MIC (S. pneumoniae; S. pneumoniae A20759, Compound 9 lot 2) was 3.1 µg/mL (≈ 8.92 µM), the MIC (S. pneumoniae; S. pneumoniae Type I, Compound 9 lot 2) was 3.1 µg/mL (≈ 8.92 µM) and the MIC (S. pneumoniae; S. pneumoniae Type III, Compound 9 lot 2) was 3.1 µg/mL (≈ 8.92 µM). The MIC (S. pneumoniae; read-out: MIC, Geometric Mean) was 3.1 µg/mL (≈ 8.92 µM), the MIC ([2]; read-out: Minimum Inhibitory Concentration Gp Ib, Mueller-Hinton agar, run 1, average of five organisms) was 4.1 µg/mL (≈ 11.8 µM) and the MIC [2, 6] was 3.6 µg/mL (≈ 10.4 µM). It also gave an MIC (B. fragilis; B. fragilis A20928-1, A21900, A20935, β-lactamase (-), read-out: MIC, Geometric Mean) of 9.9 µg/mL (≈ 28.5 µM), an MIC (B. fragilis; B. fragilis A20928-1, β-lactamase (-)) of 12.5 µg/mL (≈ 36 µM) and an MIC (B. fragilis; B. fragilis A22021, β-lactamase (+), read-out: MIC) of 100 µg/mL (≈ 288 µM). For the same compound, the MIC (B. fragilis; B. fragilis A22053, A22021, A22693, β-lactamase (+), read-out: MIC, Geometric Mean) was over 75 µg/mL, the MIC (B. fragilis; B. fragilis A22053, β-lactamase (+), read-out: MIC) was 25 µg/mL (≈ 72 µM) and the MIC (B. fragilis; B. fragilis A22533, β-lactamase (+), read-out: MIC) was over 100 µg/mL. The MIC (B. fragilis; B. fragilis A22693, β-lactamase (+), read-out: MIC) was over 100 µg/mL, the MIC (B. fragilis; B. fragilis A22695, A22533, β-lactamase (+), read-out: MIC, Geometric Mean) was over 100 µg/mL and the MIC (B. fragilis; B. fragilis A22695, β-lactamase (+), read-out: MIC) was 100 µg/mL (≈ 288 µM). The MIC (H. influenzae; H. influenzae A22157) was 3.1 µg/mL (≈ 8.92 µM), the MIC (H. influenzae; H. influenzae A22481) was 3.1 µg/mL (≈ 8.92 µM) and the MIC (H. influenzae; H. influenzae A22491) was 3.1 µg/mL (≈ 8.92 µM). It also gave an MIC (S. pyogenes; S. pyogenes A9604, Compound 9 lot 2) of 0.8 µg/mL (≈ 2.3 µM), an MIC (S. pyogenes; S. pyogenes A15040, Compound 9 lot 2) of 0.8 µg/mL (≈ 2.3 µM) and an MIC (S. pyogenes; S. pyogenes A20065, Compound 9 lot 2) of 0.8 µg/mL (≈ 2.3 µM). For the same compound, the MIC (S. pyogenes; S. pyogenes A20201, Compound 9 lot 2) was 0.8 µg/mL (≈ 2.3 µM), the MIC (S. pyogenes; S. pyogenes Dick, Compound 9 lot 2) was 0.8 µg/mL (≈ 2.3 µM) and the MIC (S. pyogenes; Streptococcus pyogenes) was 0.8 µg/mL (≈ 2.3 µM). For the same compound, the MIC (S. pyogenes; Streptococcus pyogenes, read-out: MIC, Geometric Mean) was 0.8 µg/mL (≈ 2.3 µM), the ED50 (S. aureus Smith; read-out: Protective dose (PD50) of cephalexin in the same run, S. aureus Smith, oral, value in parentheses: cephalexin in the same run as the compound of that line) was 0.31 mg/kg and the “Protective dose (PD50) of cephalexin in the same run, S. aureus Smith” value (S. aureus Smith; [7]) was 0.27 mg/kg and 0.22 mg/kg. The ED50 (E. coli Juhl; read-out: Protective dose (PD50) of cephalexin in the same run, E. coli Juhl, oral, value in parentheses: cephalexin in the same run as the compound of that line) was 8.4 mg/kg, the “Protective dose (PD50) of cephalexin in the same run, E. coli Juhl” value (E. coli Juhl; [7]) was 8.2 mg/kg and the ED50 (S. pyogenes A20201) was 0.74 mg/kg. The MIC (Gp, rods; Gp, cocci) was 11 µg/mL (≈ 31.7 µM), the “Protective Dose PD50” value (P. mirabilis A9554) was 12.5 and the MIC (C. perfringens A9645) was 12.5 µg/mL (≈ 36 µM). For the same compound, the ED50 (S. aureus BX-1633) was 17 mg/kg and the MIC (C. difficile A21675) was 100 µg/mL (≈ 288 µM).
In the case of `C/C=C\C1=C(C(=O)O)N2C(=O)[C@@H](NC(=O)[C@H](N)c3ccc(O)c(O)c3)[C@H]2SC1` [Compound 37, 7β-[D(-)-2-Amino-2-(3,4-dihydroxyphenyl)acetamido]-3-[(Z)-1-propen-1-yl]-3-cephem-4-carboxylic Acid], the antibacterial activity (bacteria) is reported as “highly active substance against both the Gram+ and Gram- bacteria”, the MIC [1, 5] is reported as 6.3 µg/mL (≈ 15.5 µM) and the MIC ([1]; read-out: Minimum inhibitory Concentration Gp Ia, Test Medium Comparison, A: Mueller-Hinton agar, average values) is reported as 4.8 µg/mL (≈ 11.8 µM). The MIC ([1]; read-out: Minimum inhibitory Concentration Gp Ia, Test Medium Comparison, B: Nutrient agar, average values) was 0.4 µg/mL (≈ 0.987 µM), the MIC [2, 6] was 7.2 µg/mL (≈ 17.8 µM) and the MIC ([2]; read-out: Minimum inhibitory Concentration Gp Ib, Test Medium Comparison, A: Mueller-Hinton agar, average values) was 6.3 µg/mL (≈ 15.5 µM). For the same compound, the MIC ([2]; read-out: Minimum inhibitory Concentration Gp Ib, Test Medium Comparison, B: Nutrient agar, average values) was 0.61 µg/mL (≈ 1.5 µM), the AUC (in vivo; im, 20 mg/kg, AUC*) was 233 µg·h/mL and the Cmax (in vivo; im, 20 mg/kg) was 86 µg/mL. It also gave a half-life (in vivo; im, 20 mg/kg) of 1.2 h, an AUC (in vivo; po, 20 mg/kg, AUC*) of 270 µg·h/mL and a Cmax (in vivo; po, 20 mg/kg) of 58 µg/mL. For the same compound, the half-life (in vivo; po, 20 mg/kg) was 5.1 h, the AUC (in vivo; po, 100 mg/kg, AUC) was 666 µg·h/mL and the Cmax (in vivo; po, 100 mg/kg) was 180 µg/mL. It also gave a half-life (in vivo; po, 100 mg/kg) of 2.5 h, an ED50 (S. aureus Smith; oral, 50% survival for 5 days, groups of 5 mice, read-out: Protective dose (PD50), S. aureus Smith) of 0.13 mg/kg and an ED50 (E. coli Juhl; oral, 50% survival for 5 days, groups of 5 mice, read-out: Protective dose (PD50), E. coli Juhl) of 0.44 mg/kg. The “activity against the Gram- infection” value (E. coli Juhl; in words) was “more active against the Gram- infection”, the “blood levels following oral administration” value [3] was “exceptionally high blood levels” and the “metabolism in the rat” value [4] was “metabolized in the rat to Compound No. 42”.
